Data from ChEMBL document CHEMBL3576831, “Discovery of a Selective TRPM8 Antagonist with Clinical Efficacy in Cold-Related Pain” (ACS Med Chem Lett, 2015).
Active and inactive are the calls of the source. No cut-off for these calls is given here.

What was measured:
[1] = Half life in beagle dog at 0.2 mg/kg, iv; format: ADME, organism-based, Canis lupus familiaris; details: in vivo
[2] = Half life in rat; format: ADME, organism-based; details: in vivo
Cavia porcellus = species on record: Cavia porcellus; experiment: Analgesic effect in guinea pig model of cold-induced bladder contractility assessed as maximum unbound concentration to causing therapeutic efficacy; format: functional
[3] = Fraction unbound in guinea pig plasma; format: ADME, cell-free, Cavia porcellus
[4] = Oral absorption in beagle dog at 20 mg/kg; format: ADME, organism-based, Canis lupus familiaris; details: in vivo
[5] = target: T1, Voltage-gated inwardly rectifying potassium channel KCNH2 (Homo sapiens, UniProt Q12809); experiment: Inhibition of human ERG
T1 sequence (Q12809 whole entry): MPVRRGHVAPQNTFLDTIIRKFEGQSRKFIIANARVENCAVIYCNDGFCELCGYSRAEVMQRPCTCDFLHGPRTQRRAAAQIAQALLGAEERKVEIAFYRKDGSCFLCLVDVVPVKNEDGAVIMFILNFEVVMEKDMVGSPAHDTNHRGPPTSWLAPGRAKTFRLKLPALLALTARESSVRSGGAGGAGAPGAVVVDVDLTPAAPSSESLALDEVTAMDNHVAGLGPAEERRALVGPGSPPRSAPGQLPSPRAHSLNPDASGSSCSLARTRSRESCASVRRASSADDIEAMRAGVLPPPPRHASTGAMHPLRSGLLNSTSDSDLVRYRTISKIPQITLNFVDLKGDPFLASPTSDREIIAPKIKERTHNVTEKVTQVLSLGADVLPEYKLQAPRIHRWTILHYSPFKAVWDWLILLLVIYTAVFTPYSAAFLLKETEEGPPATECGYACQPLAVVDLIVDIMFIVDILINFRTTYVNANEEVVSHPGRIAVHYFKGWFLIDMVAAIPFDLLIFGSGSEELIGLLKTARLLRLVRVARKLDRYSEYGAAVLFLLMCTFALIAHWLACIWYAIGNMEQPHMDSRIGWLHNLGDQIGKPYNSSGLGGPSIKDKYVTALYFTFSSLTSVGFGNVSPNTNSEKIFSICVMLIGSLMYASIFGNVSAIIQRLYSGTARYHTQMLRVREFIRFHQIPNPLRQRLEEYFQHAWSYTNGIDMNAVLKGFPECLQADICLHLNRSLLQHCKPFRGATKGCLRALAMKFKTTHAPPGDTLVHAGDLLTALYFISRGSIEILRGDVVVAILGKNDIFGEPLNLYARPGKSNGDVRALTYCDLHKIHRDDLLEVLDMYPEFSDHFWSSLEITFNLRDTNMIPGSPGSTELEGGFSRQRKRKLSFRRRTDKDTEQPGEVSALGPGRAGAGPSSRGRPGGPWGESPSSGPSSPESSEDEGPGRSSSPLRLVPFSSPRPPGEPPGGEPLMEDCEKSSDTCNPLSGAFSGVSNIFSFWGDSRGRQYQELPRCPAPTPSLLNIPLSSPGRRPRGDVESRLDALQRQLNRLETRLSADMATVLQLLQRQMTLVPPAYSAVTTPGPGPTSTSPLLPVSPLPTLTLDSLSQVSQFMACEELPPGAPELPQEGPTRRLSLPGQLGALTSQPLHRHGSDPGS

Canis familiaris = experiment: Unbound clearance in beagle dog at 0.2 mg/kg, iv; format: ADME, organism-based, Canis lupus familiaris; details: in vivo
[6] = Clearance in beagle dog at 0.2 mg/kg, iv; format: ADME, organism-based, Canis lupus familiaris; details: in vivo
[7] = Oral bioavailability in rat at 2 mg/kg; format: ADME, organism-based; details: in vivo
CYP2C9 = CYP2C9 (Homo sapiens, UniProt P11712); experiment: Inhibition of CYP2C9 (unknown origin) at 3 uM; format: ADME
CYP2C9, sequence (P11712 whole entry): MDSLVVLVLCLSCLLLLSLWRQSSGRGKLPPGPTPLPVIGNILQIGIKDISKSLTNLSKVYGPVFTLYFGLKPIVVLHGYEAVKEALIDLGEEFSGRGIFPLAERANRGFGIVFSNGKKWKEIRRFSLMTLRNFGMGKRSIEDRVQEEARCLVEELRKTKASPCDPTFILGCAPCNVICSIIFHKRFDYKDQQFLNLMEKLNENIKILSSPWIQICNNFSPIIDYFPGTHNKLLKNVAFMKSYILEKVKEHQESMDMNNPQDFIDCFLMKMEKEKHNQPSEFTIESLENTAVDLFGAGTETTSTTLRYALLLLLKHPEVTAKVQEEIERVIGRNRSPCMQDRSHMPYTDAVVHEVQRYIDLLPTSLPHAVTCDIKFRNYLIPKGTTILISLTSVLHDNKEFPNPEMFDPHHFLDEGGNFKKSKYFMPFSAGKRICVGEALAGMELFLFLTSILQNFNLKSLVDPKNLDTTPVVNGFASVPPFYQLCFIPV

CYP3A4 = CYP3A4 (Homo sapiens, UniProt P08684); experiment: Inhibition of CYP3A4 (unknown origin) at 3 uM; format: ADME
CYP3A4, sequence (P08684 whole entry): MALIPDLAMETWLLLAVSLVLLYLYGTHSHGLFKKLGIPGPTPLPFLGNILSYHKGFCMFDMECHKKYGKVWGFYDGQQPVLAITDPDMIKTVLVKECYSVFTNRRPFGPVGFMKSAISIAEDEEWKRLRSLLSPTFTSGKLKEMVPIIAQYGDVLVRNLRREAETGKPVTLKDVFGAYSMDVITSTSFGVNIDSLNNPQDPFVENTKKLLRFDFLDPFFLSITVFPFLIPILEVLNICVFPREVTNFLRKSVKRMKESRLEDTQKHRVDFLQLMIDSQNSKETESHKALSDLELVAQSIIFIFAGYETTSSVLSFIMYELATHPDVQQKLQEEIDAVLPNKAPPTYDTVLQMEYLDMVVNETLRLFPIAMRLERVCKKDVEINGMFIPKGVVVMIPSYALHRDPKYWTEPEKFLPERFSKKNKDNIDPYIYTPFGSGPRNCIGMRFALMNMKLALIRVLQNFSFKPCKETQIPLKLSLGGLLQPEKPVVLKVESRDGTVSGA

[8] = Permeability in RRCK cells; format: ADME, cell-based, Canis lupus familiaris, MDCKII-LE; details: dog, MDCK; read-out: permeability
CYP2C8 = target: T2, CYP2C8 (Homo sapiens, UniProt P10632); experiment: Inhibition of CYP2C8 (unknown origin) at 3 uM; format: ADME
T2 sequence (P10632 whole entry): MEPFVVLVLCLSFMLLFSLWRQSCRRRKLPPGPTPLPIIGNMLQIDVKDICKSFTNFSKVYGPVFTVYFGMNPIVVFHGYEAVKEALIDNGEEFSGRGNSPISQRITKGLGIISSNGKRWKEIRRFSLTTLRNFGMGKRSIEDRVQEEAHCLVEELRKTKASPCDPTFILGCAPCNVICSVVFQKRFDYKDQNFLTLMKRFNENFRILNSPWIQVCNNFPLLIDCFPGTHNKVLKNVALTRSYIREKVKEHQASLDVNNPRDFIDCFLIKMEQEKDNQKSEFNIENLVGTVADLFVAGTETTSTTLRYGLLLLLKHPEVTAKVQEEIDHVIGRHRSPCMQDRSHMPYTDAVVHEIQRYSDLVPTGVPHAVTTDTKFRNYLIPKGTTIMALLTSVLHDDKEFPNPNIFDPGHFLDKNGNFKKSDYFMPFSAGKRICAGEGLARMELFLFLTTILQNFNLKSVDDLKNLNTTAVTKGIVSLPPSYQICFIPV

Homo sapiens [9] = experiment: Analgesic effect in human at 900 mg administered as single dose by cold pressor test; format: functional, organism-based
Hepatocyte = experiment: Intrinsic clearance in human hepatocytes assessed per million cells; format: ADME, cell-based
Homo sapiens [10] = species on record: Homo sapiens; experiment: Selectivity for human TRPM8 over TRPV1 (unknown origin)
[11] = Clearance in rat; format: ADME, organism-based; details: in vivo
[12] = target: T1, Voltage-gated inwardly rectifying potassium channel KCNH2; experiment: Inhibition of dofetilide binding to human ERG
[13] = Oral absorption in rat at 2 mg/kg; format: ADME, organism-based; details: in vivo
Rattus norvegicus [14] = species on record: Rattus norvegicus; experiment: Unbound clearance in rat; format: ADME, organism-based; details: in vivo
[15] = Volume of distribution at steady state in rat; format: ADME, organism-based; details: in vivo, read-out: Vdss
CYP1A2 = target: T3, CYP1A2 (Homo sapiens, UniProt P05177); experiment: Inhibition of CYP1A2 (unknown origin) at 3 uM; format: ADME
T3 sequence (P05177 whole entry): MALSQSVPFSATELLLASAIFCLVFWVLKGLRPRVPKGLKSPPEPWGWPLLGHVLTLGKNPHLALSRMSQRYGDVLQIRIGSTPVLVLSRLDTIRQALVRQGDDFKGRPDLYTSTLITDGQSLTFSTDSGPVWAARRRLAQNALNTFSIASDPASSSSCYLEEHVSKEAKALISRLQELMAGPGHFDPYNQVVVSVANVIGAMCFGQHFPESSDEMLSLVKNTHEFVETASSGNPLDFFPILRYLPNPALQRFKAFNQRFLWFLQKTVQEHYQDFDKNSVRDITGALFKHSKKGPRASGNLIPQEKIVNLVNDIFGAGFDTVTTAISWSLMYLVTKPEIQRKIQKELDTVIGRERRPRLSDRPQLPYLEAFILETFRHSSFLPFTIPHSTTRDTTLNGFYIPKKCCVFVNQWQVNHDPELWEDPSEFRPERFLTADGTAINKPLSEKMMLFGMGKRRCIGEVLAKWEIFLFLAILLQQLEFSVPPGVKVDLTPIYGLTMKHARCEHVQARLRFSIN

Homo sapiens [16] = experiment: Toxicity in human assessed as effect on core body temperature up to 900 mg administered as single dose during cold pressor test; format: organism-based; details: in vivo
[17] = Volume of distribution at steady state in beagle dog at 0.2 mg/kg, iv; format: ADME, organism-based, Canis lupus familiaris; details: in vivo, read-out: Vdss
Rattus norvegicus [18] = species on record: Rattus norvegicus; experiment: Drug metabolism in bile-duct cannulated rat assessed as formation of acyl glucuronide formation; format: ADME, organism-based; details: in vivo
[19] = Efflux ratio in MDCK cells; format: ADME, cell-based, Canis lupus familiaris; details: dog
[20] = Fraction unbound in rat plasma; format: ADME, cell-free
Homo sapiens [21] = experiment: Toxicity in human assessed as induction of nontolerated hot sensation localized to mouth, face, upper body, arms and hands at 900 mg administered as single dose during cold pressor test; format: organism-based; details: in vivo
[22] = target: T4, Transient receptor potential cation channel subfamily M member 8 (Homo sapiens, UniProt Q7Z2W7); experiment: Antagonist activity against human recombinant TRPM8 expressed in CHO T-rex cells assessed as inhibition of WS12-induced calcium response pre-incubated for 20 mins before WS12 addition; format: cell-based
T4 sequence (Q7Z2W7 whole entry): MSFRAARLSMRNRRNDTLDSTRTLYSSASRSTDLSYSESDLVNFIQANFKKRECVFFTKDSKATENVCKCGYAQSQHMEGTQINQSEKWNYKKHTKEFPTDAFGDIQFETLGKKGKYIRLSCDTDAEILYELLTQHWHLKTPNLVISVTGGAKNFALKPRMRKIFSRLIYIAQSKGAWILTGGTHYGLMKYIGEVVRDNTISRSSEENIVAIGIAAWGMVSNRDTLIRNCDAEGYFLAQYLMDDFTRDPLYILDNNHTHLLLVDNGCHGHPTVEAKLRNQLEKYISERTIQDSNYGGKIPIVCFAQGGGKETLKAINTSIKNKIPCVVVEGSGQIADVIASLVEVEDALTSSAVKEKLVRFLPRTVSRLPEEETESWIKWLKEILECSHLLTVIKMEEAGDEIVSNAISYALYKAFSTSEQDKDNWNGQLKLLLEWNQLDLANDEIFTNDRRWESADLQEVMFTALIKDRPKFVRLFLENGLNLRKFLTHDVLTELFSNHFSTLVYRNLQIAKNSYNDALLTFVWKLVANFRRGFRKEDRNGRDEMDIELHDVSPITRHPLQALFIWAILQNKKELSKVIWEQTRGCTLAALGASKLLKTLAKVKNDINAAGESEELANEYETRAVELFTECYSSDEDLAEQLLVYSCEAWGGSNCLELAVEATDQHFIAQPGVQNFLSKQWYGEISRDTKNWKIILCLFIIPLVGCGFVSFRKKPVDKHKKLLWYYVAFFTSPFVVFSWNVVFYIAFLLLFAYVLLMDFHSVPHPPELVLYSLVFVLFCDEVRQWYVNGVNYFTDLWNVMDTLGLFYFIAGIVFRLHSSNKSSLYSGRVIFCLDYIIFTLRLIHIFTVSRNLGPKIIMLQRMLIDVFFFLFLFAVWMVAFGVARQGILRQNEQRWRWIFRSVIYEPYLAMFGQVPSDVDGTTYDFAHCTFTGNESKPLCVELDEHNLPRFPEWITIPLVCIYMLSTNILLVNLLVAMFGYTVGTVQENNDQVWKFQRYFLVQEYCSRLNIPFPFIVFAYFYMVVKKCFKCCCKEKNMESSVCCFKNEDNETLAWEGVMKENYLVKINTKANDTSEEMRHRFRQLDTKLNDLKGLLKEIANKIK

Homo sapiens [23] = species on record: Homo sapiens; experiment: Selectivity for human TRPM8 over TRPA1 (unknown origin)
CYP2D6 = CYP2D6 (Homo sapiens, UniProt P10635); experiment: Inhibition of CYP2D6 (unknown origin) at 3 uM; format: ADME
CYP2D6, sequence (P10635 whole entry): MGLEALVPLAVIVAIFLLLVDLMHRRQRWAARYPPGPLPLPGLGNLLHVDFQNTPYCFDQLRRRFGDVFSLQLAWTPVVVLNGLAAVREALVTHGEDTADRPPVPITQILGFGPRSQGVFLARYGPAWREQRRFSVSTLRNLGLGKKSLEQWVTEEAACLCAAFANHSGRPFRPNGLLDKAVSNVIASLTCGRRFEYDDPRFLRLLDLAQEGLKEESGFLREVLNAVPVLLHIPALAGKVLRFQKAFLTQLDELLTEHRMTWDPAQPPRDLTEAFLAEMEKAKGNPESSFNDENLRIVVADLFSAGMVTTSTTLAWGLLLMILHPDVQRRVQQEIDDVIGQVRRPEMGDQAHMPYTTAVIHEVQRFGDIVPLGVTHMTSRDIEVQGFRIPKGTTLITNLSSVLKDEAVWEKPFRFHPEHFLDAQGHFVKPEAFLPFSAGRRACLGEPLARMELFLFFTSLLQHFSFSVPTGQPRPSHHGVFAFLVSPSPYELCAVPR

[24] = Fraction unbound in dog plasma; format: ADME, cell-free, Canis lupus familiaris
[25] = Lipophilicity, log D of the compound; format: physicochemical; details: octanol/water
[26] = target: T4, Transient receptor potential cation channel subfamily M member 8; experiment: Antagonist activity against human TRPM8 by single cell patch clamp electrophysiology
[27] = Oral bioavailability in beagle dog at 20 mg/kg; format: ADME, organism-based, Canis lupus familiaris; details: in vivo
Liver microsome = experiment: Intrinsic clearance in rat liver microsomes; format: ADME
[28] = Oral absorption in rat at 10 mg/kg; format: ADME, organism-based; details: in vivo
[29] = Fraction unbound in human plasma; format: ADME, cell-free
[30] = Intrinsic clearance in human liver microsomes; format: ADME; details: read-out: CLH
[31] = Oral bioavailability in rat at 10 mg/kg; format: ADME, organism-based; details: in vivo

Compound C[C@H](c1ccc(F)cc1)N(Cc1cccc(C(=O)O)c1)C(=O)c1cnc2ccccc2c1 [PF-05105679] has a half-life [1] of 3.9 h, a half-life [2] of 3.6 h and a fCmax (Cavia porcellus) of 254 nM. For the same compound, the fraction unbound [3] was 0.07, the Fa [4] was 100% and the IC50 [5] was over 30 µM. The CL free (Canis familiaris) was 462 mL/min/kg, the clearance [6] was 31 mL/min/kg and the bioavailability [7] was 29%. The inhibition at 3 µM (CYP2C9) was 0%, the inhibition at 3 µM (CYP3A4) was 0% and the Papp [8] was 6.8 ×10⁻⁶ cm/s. The inhibition at 3 µM (CYP2C8) was 0%, the Activity (Homo sapiens [9]) was “Active” and the hepatocyte intrinsic clearance (Hepatocyte) was under 15 µL/min/million cells. For the same compound, the Selectivity ratio (Homo sapiens [10]) was over 100, the clearance [11] was 19.8 mL/min/kg and the Ki [12] was over 15.9 µM. It also gave a Fa [13] of 46%, a CL free (Rattus norvegicus [14]) of 618 mL/min/kg and a Vd [15] of 6.2 L/kg. For the same compound, the inhibition at 3 µM (CYP1A2) was 0%, the Activity (Homo sapiens [16]) was “Non-toxic” and the Vd [17] was 7.4 L/kg. The Drug metabolism (Rattus norvegicus [18]) was “metabolite_detected”, the efflux ratio [19] was 4.8 and the fraction unbound [20] was 0.033. The Activity (Homo sapiens [21]) was “Toxic”, the IC50 [22] was 0.181 µM and the Selectivity ratio (Homo sapiens [23]) was over 100. It also gave an inhibition at 3 µM (CYP2D6) of 0%, a fraction unbound [24] of 0.067 and a logD [25] of 1. It also gave an IC50 [26] of 0.103 µM, a bioavailability [27] of 92% and a microsomal CLint (Liver microsome) of 17 µL/min/mg. For the same compound, the Fa [28] was 100%, the fraction unbound [29] was 0.012 and the microsomal CLint [30] was under 8 µL/min/mg. For the same compound, the bioavailability [31] was 62%.

C[C@H](c1ccc(F)cc1F)N(Cc1cccc(C(=O)O)c1)C(=O)c1cc2ccccn2n1 showed a hepatocyte intrinsic clearance (Hepatocyte) of 31 µL/min/million cells, an IC50 [22] of 0.234 µM and a logD [25] of 0.9. The microsomal CLint (Liver microsome) was 85 µL/min/mg and the microsomal CLint [30] was 23 µL/min/mg.

Compound C[C@H](c1ccc(F)cc1)N(Cc1cc(C(=O)O)ccc1F)C(=O)c1cnc2ccccc2c1 has an IC50 [22] of 0.446 µM.

In the case of Cc1ccc(CN(C(=O)c2cnc3ccccc3c2)[C@H](C)c2ccc(F)cc2)cc1C(=O)O, the IC50 [22] is reported as over 7.82 µM.

C[C@H](c1ccc(F)cc1)N(Cc1ccc(F)c(C(=O)O)c1)C(=O)c1cnc2ccccc2c1 gave an IC50 [22] of 3.28 µM.

C[C@H](c1ccc(F)cc1)N(Cc1cccc(C(=O)O)c1)C(=O)c1ccc(Oc2ccccc2)cc1 showed an IC50 [22] of over 6.17 µM.

C[C@H](c1ccc(F)cc1F)N(Cc1cccc(C(=O)O)c1)C(=O)c1cnc2ccccc2c1 showed an IC50 [22] of 0.288 µM.

Compound C[C@H](c1ccc(F)cc1)N(Cc1cccc(-c2nn[nH]n2)c1)C(=O)c1cnc2ccccc2c1 has an IC50 [22] of 1.61 µM.

Work on CC[C@H](c1ccc(F)cc1F)N(Cc1cccc(C(=O)O)c1)C(=O)c1cc2ccccn2n1 yielded an inhibition at 3 µM (CYP2C9) of 0%, an inhibition at 3 µM (CYP3A4) of 0% and an inhibition at 3 µM (CYP2C8) of 0%. For the same compound, the hepatocyte intrinsic clearance (Hepatocyte) was 48 µL/min/million cells, the inhibition at 3 µM (CYP1A2) was 0% and the IC50 [22] was 0.123 µM. For the same compound, the inhibition at 3 µM (CYP2D6) was 0%, the logD [25] was 1.2 and the microsomal CLint (Liver microsome) was 41 µL/min/mg. It also gave a microsomal CLint [30] of 28 µL/min/mg.

Work on C[C@H](c1ccc(F)cc1)N(Cc1cccc(C(=O)O)n1)C(=O)c1cnc2ccccc2c1 yielded an IC50 [22] of 1.16 µM.

With C[C@H](c1ccc(F)cc1)N(Cc1cccc(C(=O)O)c1)C(=O)c1cc2ccccc2s1 the IC50 [22] was 0.145 µM.

With C[C@H](c1ccc(F)cc1F)N(Cc1cccc(C(=O)O)n1)C(=O)c1cc2ccccc2cn1 the inhibition at 3 µM (CYP2C9) was 0%, the inhibition at 3 µM (CYP3A4) was 0% and the inhibition at 3 µM (CYP2C8) was 0%. It also gave a hepatocyte intrinsic clearance (Hepatocyte) of under 2.2 µL/min/million cells, an inhibition at 3 µM (CYP1A2) of 0% and an IC50 [22] of 0.19 µM. The inhibition at 3 µM (CYP2D6) was 0%, the logD [25] was 0.4 and the microsomal CLint (Liver microsome) was 31 µL/min/mg. The microsomal CLint [30] was 11 µL/min/mg.

With CC[C@H](c1ccc(C)o1)N(Cc1cccc(C(=O)O)c1)C(=O)c1cnc2ccccc2c1 the IC50 [22] was 0.328 µM.

CC[C@H](c1ccc(F)cc1)N(Cc1cccc(C(=O)O)c1)C(=O)c1cnc2ccccc2c1 showed a hepatocyte intrinsic clearance (Hepatocyte) of 28 µL/min/million cells, a Ki [12] of over 15.2 µM and an IC50 [22] of 0.202 µM. For the same compound, the logD [25] was 1.3, the microsomal CLint (Liver microsome) was under 14 µL/min/mg and the microsomal CLint [30] was under 8 µL/min/mg.

For CC(c1ccc(F)cc1)N(Cc1cccc(C(=O)O)c1)C(=O)C1Cc2ccccc2C1 (racemic), the IC50 [22] was over 5 µM.
